Results published in ChEMBL document CHEMBL4879554, “Data for DCP probe GNE-2256” (2021).

Legend:
[1] = biological target: Rho-associated protein kinase 1 (Homo sapiens) (UniProt Q13464); assay: ROCK1 Kinase panel; conditions: Compound concentration 1.0 uM
[2] = biological target: Calcium/calmodulin-dependent protein kinase type II subunit beta (Homo sapiens) (UniProt Q13554); assay: CaMKII_beta Kinase panel; conditions: Compound concentration 1.0 uM
[3] = biological target: PAS domain-containing serine/threonine-protein kinase (Homo sapiens) (UniProt Q96RG2); assay: PASK Kinase panel; conditions: Compound concentration 1.0 uM
[4] = biological target: Ephrin type-B receptor 1 (Homo sapiens) (UniProt P54762); assay: EphB1 Kinase panel; conditions: Compound concentration 1.0 uM
[5] = biological target: Histamine H4 receptor (Homo sapiens) (UniProt Q9H3N8); conditions: Compound concentration 10.0 uM
Histamine H4 receptor (Homo sapiens), sequence (Q9H3N8 whole entry): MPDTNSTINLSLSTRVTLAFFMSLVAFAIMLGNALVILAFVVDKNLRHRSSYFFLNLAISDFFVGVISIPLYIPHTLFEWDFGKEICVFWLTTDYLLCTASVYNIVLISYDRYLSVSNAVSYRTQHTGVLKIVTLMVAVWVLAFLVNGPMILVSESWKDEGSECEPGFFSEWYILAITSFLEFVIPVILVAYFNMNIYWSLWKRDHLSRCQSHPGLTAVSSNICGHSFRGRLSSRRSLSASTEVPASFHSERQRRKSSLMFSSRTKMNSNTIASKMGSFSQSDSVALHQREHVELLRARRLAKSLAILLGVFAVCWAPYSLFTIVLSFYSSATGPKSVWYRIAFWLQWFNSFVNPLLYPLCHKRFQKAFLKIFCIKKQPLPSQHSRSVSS

[6] = biological target: Ribosomal protein S6 kinase alpha-5 (Homo sapiens) (UniProt O75582); assay: MSK1 Kinase panel; conditions: Compound concentration 1.0 uM
[7] = biological target: Protein kinase C zeta type (Homo sapiens) (UniProt Q05513); assay: PKC_zeta Kinase panel; conditions: Compound concentration 1.0 uM
Protein kinase C zeta type (Homo sapiens), sequence (Q05513 whole entry): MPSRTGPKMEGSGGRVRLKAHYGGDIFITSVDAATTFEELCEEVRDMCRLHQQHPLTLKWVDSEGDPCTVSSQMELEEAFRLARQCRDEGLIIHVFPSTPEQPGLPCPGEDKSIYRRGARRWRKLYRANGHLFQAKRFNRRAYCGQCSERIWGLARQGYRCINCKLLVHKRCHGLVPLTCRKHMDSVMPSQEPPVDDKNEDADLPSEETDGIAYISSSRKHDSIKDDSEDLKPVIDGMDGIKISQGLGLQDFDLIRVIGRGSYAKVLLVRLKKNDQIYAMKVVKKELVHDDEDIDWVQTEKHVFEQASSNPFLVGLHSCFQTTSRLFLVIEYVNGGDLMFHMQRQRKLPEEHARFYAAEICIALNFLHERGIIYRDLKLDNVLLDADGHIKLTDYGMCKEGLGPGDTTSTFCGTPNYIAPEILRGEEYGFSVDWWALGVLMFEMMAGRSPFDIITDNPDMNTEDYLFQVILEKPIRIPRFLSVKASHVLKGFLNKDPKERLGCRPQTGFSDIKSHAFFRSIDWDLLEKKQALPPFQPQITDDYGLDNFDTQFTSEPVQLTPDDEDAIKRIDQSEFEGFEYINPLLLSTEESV

[8] = biological target: Serine/threonine-protein kinase 3 (Homo sapiens) (UniProt Q13188); assay: MST2 Kinase panel; conditions: Compound concentration 1.0 uM
[9] = biological target: Homeodomain-interacting protein kinase 4 (Homo sapiens) (UniProt Q8NE63); assay: HIPK4 Kinase panel; conditions: Compound concentration 1.0 uM
[10] = biological target: TGF-beta receptor type-1 (Homo sapiens) (UniProt P36897); assay: TGFBR1 Kinase panel; conditions: Compound concentration 1.0 uM
[11] = biological target: Receptor-type tyrosine-protein kinase FLT3 (Homo sapiens) (UniProt P36888); assay: Flt3 Kinase panel; conditions: Compound concentration 1.0 uM
[12] = biological target: Mitogen-activated protein kinase kinase kinase 10 (Homo sapiens) (UniProt Q02779); assay: MLK2 Kinase panel; conditions: Compound concentration 1.0 uM
Mitogen-activated protein kinase kinase kinase 10 (Homo sapiens), sequence (Q02779 whole entry, looked up): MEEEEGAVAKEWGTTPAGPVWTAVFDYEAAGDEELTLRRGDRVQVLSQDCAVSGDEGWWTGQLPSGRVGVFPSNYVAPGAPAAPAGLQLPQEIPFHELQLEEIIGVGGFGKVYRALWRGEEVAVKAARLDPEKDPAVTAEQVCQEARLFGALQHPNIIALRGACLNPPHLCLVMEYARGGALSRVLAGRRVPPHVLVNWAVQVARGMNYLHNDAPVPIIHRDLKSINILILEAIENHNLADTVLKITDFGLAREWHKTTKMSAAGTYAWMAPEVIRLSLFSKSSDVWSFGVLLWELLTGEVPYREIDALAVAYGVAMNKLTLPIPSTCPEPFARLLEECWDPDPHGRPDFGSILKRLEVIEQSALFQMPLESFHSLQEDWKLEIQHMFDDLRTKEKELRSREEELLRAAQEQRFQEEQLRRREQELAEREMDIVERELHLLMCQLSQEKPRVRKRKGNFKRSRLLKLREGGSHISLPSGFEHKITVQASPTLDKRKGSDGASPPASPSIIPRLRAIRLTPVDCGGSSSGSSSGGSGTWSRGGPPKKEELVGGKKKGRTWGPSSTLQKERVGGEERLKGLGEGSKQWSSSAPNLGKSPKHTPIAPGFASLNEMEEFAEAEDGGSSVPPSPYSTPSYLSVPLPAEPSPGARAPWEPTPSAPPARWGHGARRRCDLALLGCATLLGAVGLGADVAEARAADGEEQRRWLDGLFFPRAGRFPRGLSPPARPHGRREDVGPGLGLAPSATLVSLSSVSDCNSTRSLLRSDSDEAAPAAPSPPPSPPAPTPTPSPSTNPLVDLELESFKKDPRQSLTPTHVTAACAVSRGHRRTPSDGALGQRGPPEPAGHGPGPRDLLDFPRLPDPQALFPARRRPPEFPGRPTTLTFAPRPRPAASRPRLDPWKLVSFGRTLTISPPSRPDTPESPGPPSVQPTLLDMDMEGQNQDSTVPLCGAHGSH

[13] = biological target: Muscarinic acetylcholine receptor M1 (Homo sapiens) (UniProt P11229); conditions: Compound concentration 10.0 uM
Muscarinic acetylcholine receptor M1 (Homo sapiens), sequence (P11229 whole entry): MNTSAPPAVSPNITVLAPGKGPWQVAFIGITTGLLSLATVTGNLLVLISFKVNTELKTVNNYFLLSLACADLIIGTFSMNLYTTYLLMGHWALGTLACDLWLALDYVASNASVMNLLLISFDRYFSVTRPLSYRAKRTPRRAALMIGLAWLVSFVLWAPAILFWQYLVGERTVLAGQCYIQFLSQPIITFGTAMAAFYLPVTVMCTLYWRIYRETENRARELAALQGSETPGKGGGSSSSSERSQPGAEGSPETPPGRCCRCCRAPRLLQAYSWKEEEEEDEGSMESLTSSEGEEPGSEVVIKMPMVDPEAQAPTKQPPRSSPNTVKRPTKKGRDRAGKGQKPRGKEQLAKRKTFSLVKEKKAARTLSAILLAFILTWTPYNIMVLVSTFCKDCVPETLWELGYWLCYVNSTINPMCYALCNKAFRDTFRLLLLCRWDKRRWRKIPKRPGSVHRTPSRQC

[14] = biological target: Beta-1 adrenergic receptor (Homo sapiens) (UniProt P08588); conditions: Compound concentration 10.0 uM
[15] = biological target: Serine/threonine-protein kinase Sgk1 (Homo sapiens) (UniProt O00141); assay: SGK1 Kinase panel; conditions: Compound concentration 1.0 uM
[16] = biological target: Histamine H1 receptor (Homo sapiens) (UniProt P35367); conditions: Compound concentration 10.0 uM
[17] = biological target: Serine/threonine-protein kinase pim-1 (Homo sapiens) (UniProt P11309); assay: PIM1 Kinase panel; conditions: Compound concentration 1.0 uM
[18] = biological target: Casein kinase I isoform gamma-2 (Homo sapiens) (UniProt P78368); assay: CK1_gamma2 Kinase panel; conditions: Compound concentration 1.0 uM
[19] = biological target: Serine/threonine-protein kinase TBK1 (Homo sapiens) (UniProt Q9UHD2); assay: TBK1 Kinase panel; conditions: Compound concentration 1.0 uM
[20] = biological target: Inhibitor of nuclear factor kappa-B kinase subunit alpha (Homo sapiens) (UniProt O15111); assay: IKK_alpha Kinase panel; conditions: Compound concentration 1.0 uM
[21] = biological target: Serine/threonine-protein kinase Nek9 (Homo sapiens) (UniProt Q8TD19); assay: NEK9 Kinase panel; conditions: Compound concentration 1.0 uM
[22] = biological target: Proto-oncogene tyrosine-protein kinase ROS (Homo sapiens) (UniProt P08922); assay: Ros Kinase panel; conditions: Compound concentration 1.0 uM
[23] = biological target: Cyclin-dependent kinase 2/cyclin A (Homo sapiens) (UniProt P24941+P20248+P78396); assay: CDK2/cyclinA Kinase panel; assay type: protein-complex assay; conditions: Compound concentration 1.0 uM
[24] = biological target: Phosphatidylinositol 4,5-bisphosphate 3-kinase catalytic subunit alpha isoform (Homo sapiens) (UniProt P42336); assay: PI3KA Kinase panel; conditions: Compound concentration 1.0 uM
[25] = biological target: Protein-tyrosine kinase 6 (Homo sapiens) (UniProt Q13882); assay: Brk Kinase panel; conditions: Compound concentration 1.0 uM
[26] = biological target: Mitogen-activated protein kinase kinase kinase 20 (Homo sapiens) (UniProt Q9NYL2); assay: ZAK Kinase panel; conditions: Compound concentration 1.0 uM
[27] = biological target: 5-hydroxytryptamine receptor 1B (Homo sapiens) (UniProt P28222); conditions: Compound concentration 10.0 uM
[28] = biological target: Serine/threonine-protein kinase DCLK2 (Homo sapiens) (UniProt Q8N568); assay: DCAMKL2 Kinase panel; conditions: Compound concentration 1.0 uM
[29] = biological target: Leucine-rich repeat serine/threonine-protein kinase 2 (Homo sapiens) (UniProt Q5S007); assay: LRRK2 Kinase panel; conditions: Compound concentration 1.0 uM
[30] = biological target: 5-hydroxytryptamine receptor 2C (Homo sapiens) (UniProt P28335); conditions: Compound concentration 10.0 uM
[31] = biological target: Calcium/calmodulin-dependent protein kinase type 1 (Homo sapiens) (UniProt Q14012); assay: CaMKI Kinase panel; conditions: Compound concentration 1.0 uM
[32] = biological target: Dual specificity tyrosine-phosphorylation-regulated kinase 3 (Homo sapiens) (UniProt O43781); assay: DYRK3 Kinase panel; conditions: Compound concentration 1.0 uM
[33] = biological target: Alpha-2A adrenergic receptor (Homo sapiens) (UniProt P08913); conditions: Compound concentration 10.0 uM
[34] = biological target: Serine/threonine-protein kinase 4 (Homo sapiens) (UniProt Q13043); assay: MST1 Kinase panel; conditions: Compound concentration 1.0 uM
[35] = biological target: Serine/threonine-protein kinase 24 (Homo sapiens) (UniProt Q9Y6E0); assay: MST3 Kinase panel; conditions: Compound concentration 1.0 uM
[36] = biological target: Serine/threonine-protein kinase WNK2 (Homo sapiens) (UniProt Q9Y3S1); assay: WNK2 Kinase panel; conditions: Compound concentration 1.0 uM
[37] = biological target: Serine/threonine-protein kinase Chk2 (Homo sapiens) (UniProt O96017); assay: CHK2 Kinase panel; conditions: Compound concentration 1.0 uM
[38] = biological target: Serine/threonine-protein kinase BRSK1 (Homo sapiens) (UniProt Q8TDC3); assay: BrSK1 Kinase panel; conditions: Compound concentration 1.0 uM
[39] = biological target: Beta-adrenergic receptor kinase 1 (Homo sapiens) (UniProt P25098); assay: GRK2 Kinase panel; conditions: Compound concentration 1.0 uM
[40] = biological target: Calcium/calmodulin-dependent protein kinase kinase 2 (Homo sapiens) (UniProt Q96RR4); assay: CAMKK2 Kinase panel; conditions: Compound concentration 1.0 uM
[41] = biological target: Megakaryocyte-associated tyrosine-protein kinase (Homo sapiens) (UniProt P42679); assay: Hyl Kinase panel; conditions: Compound concentration 1.0 uM
[42] = biological target: Ribosomal protein S6 kinase beta-1 (Homo sapiens) (UniProt P23443); assay: p70S6K Kinase panel; conditions: Compound concentration 1.0 uM
Ribosomal protein S6 kinase beta-1 (Homo sapiens), sequence (P23443 whole entry, looked up): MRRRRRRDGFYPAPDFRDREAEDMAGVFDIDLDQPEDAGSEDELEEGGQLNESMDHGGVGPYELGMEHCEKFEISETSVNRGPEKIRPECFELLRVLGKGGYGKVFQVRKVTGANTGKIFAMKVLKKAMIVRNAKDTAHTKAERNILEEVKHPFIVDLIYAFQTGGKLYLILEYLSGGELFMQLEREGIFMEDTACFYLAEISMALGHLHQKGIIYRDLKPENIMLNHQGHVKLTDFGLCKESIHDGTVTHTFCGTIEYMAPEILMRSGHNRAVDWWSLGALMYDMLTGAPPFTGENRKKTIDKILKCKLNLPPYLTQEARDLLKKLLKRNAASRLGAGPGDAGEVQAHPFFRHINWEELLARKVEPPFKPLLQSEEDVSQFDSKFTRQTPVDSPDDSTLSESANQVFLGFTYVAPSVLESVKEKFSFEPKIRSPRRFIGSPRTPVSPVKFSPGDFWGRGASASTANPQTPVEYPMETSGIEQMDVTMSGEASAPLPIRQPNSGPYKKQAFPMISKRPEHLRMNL

[43] = biological target: Protein kinase C eta type (Homo sapiens) (UniProt P24723); assay: PKC_eta Kinase panel; conditions: Compound concentration 1.0 uM
Protein kinase C eta type (Homo sapiens), sequence (P24723 whole entry): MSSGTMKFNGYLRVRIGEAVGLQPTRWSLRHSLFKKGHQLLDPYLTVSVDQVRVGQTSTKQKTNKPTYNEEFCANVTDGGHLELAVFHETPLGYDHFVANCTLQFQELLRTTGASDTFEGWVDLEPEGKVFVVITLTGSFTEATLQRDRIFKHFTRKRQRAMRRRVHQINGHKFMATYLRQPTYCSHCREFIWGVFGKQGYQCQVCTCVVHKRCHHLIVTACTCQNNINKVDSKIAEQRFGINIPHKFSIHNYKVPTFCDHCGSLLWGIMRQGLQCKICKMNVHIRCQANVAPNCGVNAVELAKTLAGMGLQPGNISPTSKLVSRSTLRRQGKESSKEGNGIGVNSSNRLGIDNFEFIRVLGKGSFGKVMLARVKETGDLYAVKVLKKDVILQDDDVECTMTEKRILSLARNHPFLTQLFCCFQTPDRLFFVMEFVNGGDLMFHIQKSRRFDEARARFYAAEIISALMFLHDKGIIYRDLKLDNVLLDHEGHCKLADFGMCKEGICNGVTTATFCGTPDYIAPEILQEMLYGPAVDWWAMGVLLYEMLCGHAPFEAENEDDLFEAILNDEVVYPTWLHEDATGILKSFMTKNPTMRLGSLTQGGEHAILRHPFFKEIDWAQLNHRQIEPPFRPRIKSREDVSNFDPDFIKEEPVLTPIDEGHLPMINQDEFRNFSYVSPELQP

[44] = biological target: Sigma non-opioid intracellular receptor 1 (Homo sapiens) (UniProt Q99720); conditions: Compound concentration 10.0 uM
Sigma non-opioid intracellular receptor 1 (Homo sapiens), sequence (Q99720 whole entry): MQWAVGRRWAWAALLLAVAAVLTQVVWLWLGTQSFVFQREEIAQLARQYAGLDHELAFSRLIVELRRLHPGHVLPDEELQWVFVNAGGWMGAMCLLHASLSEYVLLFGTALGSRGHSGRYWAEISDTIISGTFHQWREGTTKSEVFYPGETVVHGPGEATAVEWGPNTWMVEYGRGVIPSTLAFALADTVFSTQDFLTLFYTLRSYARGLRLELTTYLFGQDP

[45] = biological target: MAP kinase-activated protein kinase 5 (Homo sapiens) (UniProt Q8IW41); assay: PRAK Kinase panel; conditions: Compound concentration 1.0 uM
MAP kinase-activated protein kinase 5 (Homo sapiens), sequence (Q8IW41 whole entry): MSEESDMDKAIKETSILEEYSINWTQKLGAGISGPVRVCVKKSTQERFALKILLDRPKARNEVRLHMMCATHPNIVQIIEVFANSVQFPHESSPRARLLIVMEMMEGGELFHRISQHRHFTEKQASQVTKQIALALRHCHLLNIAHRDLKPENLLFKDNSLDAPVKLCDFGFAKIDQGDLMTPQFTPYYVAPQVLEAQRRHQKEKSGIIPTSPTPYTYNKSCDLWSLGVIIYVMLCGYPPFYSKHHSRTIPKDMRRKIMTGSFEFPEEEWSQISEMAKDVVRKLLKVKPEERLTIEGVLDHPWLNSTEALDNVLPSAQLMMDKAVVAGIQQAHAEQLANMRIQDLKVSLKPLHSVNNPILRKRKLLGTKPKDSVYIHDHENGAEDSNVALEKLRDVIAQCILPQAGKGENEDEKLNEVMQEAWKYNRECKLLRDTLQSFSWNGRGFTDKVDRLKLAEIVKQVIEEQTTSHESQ

[46] = biological target: MAP kinase-activated protein kinase 3 (Homo sapiens) (UniProt Q16644); assay: MAPKAPK3 Kinase panel; conditions: Compound concentration 1.0 uM
[47] = biological target: RAC-alpha serine/threonine-protein kinase (Homo sapiens) (UniProt P31749); assay: AKT1 Kinase panel; conditions: Compound concentration 1.0 uM
[48] = biological target: Glycogen synthase kinase-3 beta (Homo sapiens) (UniProt P49841); assay: GSK3_beta Kinase panel; conditions: Compound concentration 1.0 uM
[49] = biological target: Serine/threonine-protein kinase PLK2 (Homo sapiens) (UniProt Q9NYY3); assay: PLK2 Kinase panel; conditions: Compound concentration 1.0 uM
[50] = biological target: Serine/threonine-protein kinase PAK 4 (Homo sapiens) (UniProt O96013); assay: PAK4 Kinase panel; conditions: Compound concentration 1.0 uM
[51] = biological target: High affinity nerve growth factor receptor (Homo sapiens, UniProt P04629); assay: TrkA Kinase panel
[52] = biological target: Myotonin-protein kinase (Homo sapiens) (UniProt Q09013); assay: DMPK Kinase panel; conditions: Compound concentration 1.0 uM
Myotonin-protein kinase (Homo sapiens), sequence (Q09013 whole entry): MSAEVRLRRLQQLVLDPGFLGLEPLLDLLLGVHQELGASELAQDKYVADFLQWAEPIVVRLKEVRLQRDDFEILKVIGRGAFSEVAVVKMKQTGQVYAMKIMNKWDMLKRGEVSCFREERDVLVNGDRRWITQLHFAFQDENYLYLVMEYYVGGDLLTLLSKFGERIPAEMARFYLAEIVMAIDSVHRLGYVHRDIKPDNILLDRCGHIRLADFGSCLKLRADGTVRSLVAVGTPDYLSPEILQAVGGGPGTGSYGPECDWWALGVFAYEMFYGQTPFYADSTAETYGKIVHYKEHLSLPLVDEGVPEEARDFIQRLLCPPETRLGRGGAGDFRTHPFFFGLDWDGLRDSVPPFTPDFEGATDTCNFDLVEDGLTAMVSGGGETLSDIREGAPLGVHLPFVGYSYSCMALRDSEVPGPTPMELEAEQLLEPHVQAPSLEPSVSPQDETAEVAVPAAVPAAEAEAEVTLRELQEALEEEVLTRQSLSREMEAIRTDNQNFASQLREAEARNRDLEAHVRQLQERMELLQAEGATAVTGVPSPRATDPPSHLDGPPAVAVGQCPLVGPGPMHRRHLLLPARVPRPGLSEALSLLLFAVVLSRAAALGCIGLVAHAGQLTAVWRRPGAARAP

[53] = biological target: Beta-3 adrenergic receptor (Homo sapiens) (UniProt P13945); conditions: Compound concentration 10.0 uM

CC(C)(O)[C@H](F)CN1Cc2cc(NC(=O)c3cnn4cccnc34)c(N3CCOCC3)cc2C1=O
inactive: inhibition [1] 5% | inhibition [2] -5.5% | inhibition [3] -6.5% | inhibition [4] 23% | inhibition [5] 19.5% | inhibition [6] -2% | inhibition [7] 6% | inhibition [8] 7% | inhibition [9] 2.5% | inhibition [10] 0.5% | inhibition [11] 90.8% | inhibition [12] 7.5% | inhibition [13] -9.03% | inhibition [14] 1.93% | inhibition [15] 4% | inhibition [16] 17.7% | inhibition [17] 1.5% | inhibition [18] 5% | inhibition [19] 5.5% | inhibition [20] 8.5% | inhibition [21] -2.5% | inhibition [22] 38.5% | inhibition [23] 3% | inhibition [24] 21.5% | inhibition [25] 10.5% | inhibition [26] 5.5% | inhibition [27] 33% | inhibition [28] 0.5% | inhibition [29] 91.4% | inhibition [30] 1.26% | inhibition [31] -5.5% | inhibition [32] 2% | inhibition [33] 9.09% | inhibition [34] -1% | inhibition [35] 5.5% | inhibition [36] 2.5% | inhibition [37] 13% | inhibition [38] 3% | inhibition [39] -3% | inhibition [40] 8.5% | inhibition [41] -4% | inhibition [42] 1% | inhibition [43] 8% | inhibition [44] 9.11% | inhibition [45] -3.5% | inhibition [46] 6% | inhibition [47] 0.5% | inhibition [48] 7.8% | inhibition [49] -3.5% | inhibition [50] 5% | inhibition ([51]; Compound concentration 1.0 uM) 71% | inhibition [52] 2.1% | inhibition [53] 11.2%
313 nM: IC50 [51]
